Source: PubChem BioAssay (NCI)
“And” between values parts separate entries of the source, which are not always exact repeats. Equal entries are not always repeated.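 Dose response: 5 concentrations. Exposure: 48 h. Format: 96-well plates. Endpoint: linear interpolation; highest concentration if not reached. Here, GI50 denotes the concentration required for 50% inhibition of growth. At the TGI there is no net growth.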

Columns and labels:
Assay in all cases: DTP human tumour cell line panel, 48 h
UACC-62 melanoma = system: UACC-62 melanoma
KM20L2 colon = system: KM20L2 colon
DLD-1 colon = system: DLD-1 colon
A498 renal = system: A498 renal
OVCAR-4 ovarian = system: OVCAR-4 ovarian
SR leukemia = system: SR leukemia
SNB-78 CNS = system: SNB-78 CNS
LXFL 529 NSCLC = system: LXFL 529 NSCLC
MDA-MB-435 = system: MDA-MB-435
MCF7 breast = system: MCF7 breast

| Structure (SMILES) | TGI (UACC-62 melanoma) | TGI (KM20L2 colon) [µM] | TGI (DLD-1 colon) | TGI (A498 renal) [µM] | TGI (OVCAR-4 ovarian) [µM] | TGI (SR leukemia) [µM] | TGI (SNB-78 CNS) | TGI (LXFL 529 NSCLC) [µM] | GI50 (UACC-62 melanoma) [µM] | GI50 (KM20L2 colon) [µM] | TGI (MDA-MB-435) [µM] | GI50 (DLD-1 colon) [µM] | GI50 (SR leukemia) [nM] | GI50 (SNB-78 CNS) [µM] | TGI (MCF7 breast) [µM] | GI50 (A498 renal) [nM] | GI50 (OVCAR-4 ovarian) [nM] | GI50 (LXFL 529 NSCLC) [nM] |
| --- | --- | --- | --- | --- | --- | --- | --- | --- | --- | --- | --- | --- | --- | --- | --- | --- | --- | --- |
| c1ccc2c(c1)cc(C1NCCc3[nH]cnc31)c1ccccc12 (configuration not stated) | > 51.1 µM | > 100 | > 100 µM | 50 | > 86.8 | 61.1 | > 100 µM | > 63.5 | – | – | – | – | – | – | – | – | – | – |
| OC(c1ccccc1)(c1ccccc1)c1ccncc1 | > 100 µM | > 100 | > 100 µM | – | > 100 | > 100 | > 100 µM | > 100 | – | – | – | – | – | – | – | – | – | – |
| CCN(CC)c1c(C(=O)/C=C/c2ccc(OC)cc2)c(-c2ccccc2)nn(C)c1=O | 28.5 µM | 33.1 | 71.3 µM | 46.8 | 58 | 44.7 | > 100 µM | > 100 | – | – | – | – | – | – | – | – | – | – |
| CN(C)CC/C(=N\Nc1ccc([N+](=O)[O-])cc1)c1ccccc1 | 25.9 µM | 15.2 | 27.2 µM | 27.2 | 37.2 | 17.2 | 20 µM | 19.3 | – | – | – | – | – | – | – | – | – | – |
| O=[N+]([O-])c1cc(C(F)(F)F)cc([N+](=O)[O-])c1CCl | 1.21 µM | 8.72 | 4.65 µM | 38 | 3.69 | 2.72 | 10.6 µM | 0.639 | – | – | – | – | – | – | – | – | – | – |
| CCOc1ccccc1N1C(=O)C(=O)C(c2nc3ccccc3o2)C(=O)C1=O | > 100 µM | > 100 | > 100 µM | > 100 | 45.7 | > 100 | > 100 µM | > 100 | – | – | – | – | – | – | – | – | – | – |
| CCOC(=O)N1CCN(C=S)CC1 | > 100 µM | > 100 | > 100 µM | > 100 | – | > 100 | > 100 µM | > 100 | – | – | – | – | – | – | – | – | – | – |
| CCOc1ccc2c(c1)[n+]([O-])c(-c1ccc(Cl)cc1)c(N)[n+]2[O-] | – | > 100 | > 100 µM | > 100 | > 100 | > 100 | > 100 µM | > 100 | – | – | – | – | – | – | – | – | – | – |
| CC(C)C1CC[C@@H](C)C[C@@]1(O)CC(N)=O (some centres not stated) | > 100 µM | > 100 | > 100 µM | – | > 100 | > 100 | > 100 µM | > 100 | – | – | – | – | – | – | – | – | – | – |
| CCCCNc1nc(C#N)c(N)s1 | > 100 µM | > 100 | > 100 µM | – | > 100 | > 100 | > 100 µM | > 100 | – | – | – | – | – | – | – | – | – | – |
| CC1CCC(NC(=O)N(CCCl)N=O)CC1 (configuration not stated) | 29.7 µM and 53.5 µM | 120 | 47.7 µM and 79.4 µM | 124 | 61.1 | – | 88.7 µM and 110 µM | 28.7 | 7.87 | 44.7 | 65.9 | 22.3 | 832 | 20.1 | 110 | – | – | – |
| CCS(CC)(CC)CC1CCCC2=CCC(P(=O)(c3ccccc3)c3ccccc3)CC21 (configuration not stated) | 13.5 µM | 25.2 | 28.7 µM | 28 | 26 | 25.5 | 37.1 µM | 22.4 | – | – | – | – | – | – | – | – | – | – |
| Oc1ccccc1/C=C/c1csnn1 | > 100 µM | > 100 | > 100 µM | > 100 | > 100 | > 68 | > 100 µM | > 100 | – | – | – | – | – | – | – | – | – | – |
| COc1cc(OC(=O)c2ccccc2)cc2c1C(=O)C=CC2=O | 28.5 µM | > 100 | 35.5 µM | 37.8 | 12.3 | 5.03 | 41.4 µM | 25.5 | – | – | 12 | – | – | – | 52 | – | – | – |
| COc1ccc(Br)c(N/N=C2\CCCNC2=O)c1 | > 100 µM | > 100 | > 100 µM | – | > 100 | > 100 | > 100 µM | > 100 | – | – | – | – | – | – | – | – | – | – |
| COC1CC(OS(=O)(=O)c2ccc([N+](=O)[O-])cc2)C(OC(=O)c2ccccc2)C(C)O1 (configuration not stated) | > 100 µM | > 100 | > 100 µM | > 100 | > 100 | > 100 | > 100 µM | > 100 | – | – | – | – | – | – | – | – | – | – |
| Cc1ccc(S(=O)(=O)OC2CSS(=O)CC2OS(=O)(=O)c2ccc(C)cc2)cc1 (configuration not stated) | 29.2 µM | 32.6 | 23.6 µM | 30.1 | 32.6 | 8.15 | 58.9 µM | 27.7 | – | – | – | – | – | – | – | – | – | – |
| CCOC(=O)NC(=O)c1cn(CCOC(=O)CCCCCCCCC(=O)OCCn2cc(C(=O)NC(=O)OCC)c(=O)[nH]c2=O)c(=O)[nH]c1=O | > 100 µM | > 100 | > 100 µM | > 100 | > 100 | > 100 | > 100 µM | > 100 | – | – | – | – | – | – | – | – | – | – |
| CCC[CH2][Sn]1([CH2]CCC)[O]C(=O)c2cccnc2[O]1 | 3.94 µM | 11.9 | 10.7 µM | 7.27 | 8.57 | 6.19 | 7.73 µM | 2.22 | 1.8 | 3.96 | – | 3.11 | 1650 | 2.07 | – | 2720 | 1650 | 849 |
